Results from publication PMC5100903, “Tissue Kallikrein Inhibitors Based on the Sunflower Trypsin Inhibitor Scaffold – A Potential Therapeutic Intervention for Skin Diseases” (PLoS ONE, 2016).
Positions of bridges follow the written chain, without caps; N, C: chain ends. Residues, ends and D or L forms follow the SMILES beside them.

How the values were obtained:
[1] = tested on: in vitro skin equivalent cultures (primary human keratinocytes and fibroblasts); assay: Organotypic skin culture, in-situ zymography with casein substrate; format: cell-based; details: 10 μM in PBS, topical, once every day for two days
Experimental: Primary keratinocytes and fibroblasts were isolated from skin biopsies from healthy donors and incubated with 0.25% trypsin/EDTA 3 hours for keratinocytes and Serva 50U/ml collagenase NB6 (Universal Biologicals, Cambridge, UK) 2 hours for fibroblasts. Isolated primary keratinocytes were then co-cultured with lethally irradiated 3T3 mouse fibroblasts and grown in keratinocyte culture media. Primary keratinocytes and fibroblasts from normal donors’ skin biopsies were cultivated in vitro on de-epidermalized dermal matrix as described. Briefly, dermal fibroblasts derived from skin biopsies were seeded onto the reticular side of the de-epidermalized dermal matrix and keratinocytes were seeded on the papillary side. After keratinocytes reached confluence, the culture was lifted at the air-liquid interface for 14 days. The OTCs were then topically treated with Analogue 6 (10 μL, 10 μM) or 1xPBS for the untreated control in two doses each separated by 24hrs. Following treatment, the cultures were harvest and embedded in O.C.T.™ (Sakura Finetek, Netherlands) for cryosections. The cryosections (7 μm thick) of the treated and untreated tissues were washed with 1xPBS. […] Sections were examined under a Leica DM LB fluorescence microscope and the images processed using ImageJ (v1.46).

KLK5 = target: T1, KLK5 (Homo sapiens, UniProt Q9Y337); assay: biochemical
T1 construct: purchased Novoprotein
T1 sequence (Q9Y337 23-293): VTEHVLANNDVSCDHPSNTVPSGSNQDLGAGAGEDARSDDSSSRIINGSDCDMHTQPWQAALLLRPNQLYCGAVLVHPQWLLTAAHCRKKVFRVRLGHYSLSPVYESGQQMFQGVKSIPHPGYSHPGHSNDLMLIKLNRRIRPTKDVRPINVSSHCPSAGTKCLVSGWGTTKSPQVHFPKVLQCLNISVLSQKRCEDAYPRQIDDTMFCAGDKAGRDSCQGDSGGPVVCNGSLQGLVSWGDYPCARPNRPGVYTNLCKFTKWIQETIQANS
Experimental: All assays were performed on 96-well microplates and the change in relative fluorescence unit (RFU) was measured by fluorescence spectrometer (BMG FLUOstar OPTIMA). The excitation/emission wavelength was 360/460 nm for the substrate Boc-VPR-AMC (Bachem AG, Hauptstrasse, Switzerland) and MeOSuc-AAPV-AMC (Bachem AG, Hauptstrasse, Switzerland) and 485/520 nm for BODIPY_FL casein (Invitrogen, Carlsbad, US). Stock solution of Boc-VPR-AMC was prepared by dissolving the solid in dimethyl sulfoxide to 100 mM and 10 mM for MeOSuc-AAPV. For BODIPY_FL casein, it was reconstituted to 1 mg/mL in 1xPBS. […] The % of inhibition was calculated by the following equation: % of Inhibition=(1−(Sample RFU − Min RFU)/(Max RFU − Min RFU)) X100
Each inhibition curves were done in triplicates with a minimum of five concentration points fitted. Fitting of each curve was done using SigmaPlot with the Four Parameter Logistic Function and the IC50 calculated. […] All tested compounds were reconstituted to stock solution in water.
The diluent for all the tested compounds, protein and substrate was 1xPBS. Serially diluted ligands were mixed with diluted recombinant KLK5 (10 nM f/c). The ligand-protein mixtures were incubated on ice for one hour and 19.5 μL was pipetted into a well of a 96-well microplate in triplicates. To start the reaction, 100 μL of the diluted (41.6 μM f/c) Boc-VPR-AMC substrate solution (contained 0.05% v/v Brij35) was added. The plate was incubated at 37°C and the RFU reading was taken 15 minutes after.
There are two previously reported Km values for KLK5 and its substrate Boc-VPR-AMC which allowed the IC50 to Ki conversion. Ki values were calculated according to the Cheng-Prusoff equation Ki= IC50/1+[S]/Km for single site competitive binding.

Row | SMILES | penetration of the cornified layer of in vitro grown skin [1] | skin protease activity in epidermis (in-situ zymography) [1] | IC50 (KLK5; KLK5 10 nM, Boc-VPR-AMC 41.6 μM, 1xPBS, one hour on ice preincubation, read at 15 min, 37°C) [µM] | Ki (KLK5; calculated from Table 2 IC50 by Cheng-Prusoff equation, read-out: Inhibitory Constant (Ki)) [µM]
1 | CC[C@H](C)[C@@H]1NC(=O)[C@H](CO)NC(=O)[C@H](CCCNC(=N)N)NC(=O)[C@H]([C@@H](C)O)NC(=O)[C@@H]2CSSC[C@H](NC(=O)[C@H](Cc3c[nH]cn3)NC(=O)[C@@H]3CCCN3C(=O)[C@@H]3CCCN3C1=O)C(=O)N[C@@H](Cc1c[nH]c3ccccc13)C(=O)N1CCC[C@H]1C(=O)N[C@@H](CC(=O)O)C(=O)NCC(=O)N[C@@H](CCCNC(=N)N)C(=O)N2 [Analogue 6] (cyclo(CTRSIPPHCWPDGR); disulfide 1-9) | penetrated the cornified layer | weaker in the epidermis of the treated skin compared to untreated skin |  | 
2 | CC[C@H](C)[C@@H]1NC(=O)[C@H](CO)NC(=O)[C@H](CCCCN)NC(=O)[C@H]([C@@H](C)O)NC(=O)[C@@H]2CSSC[C@H](NC(=O)[C@H](Cc3c[nH]cn3)NC(=O)[C@@H]3CCCN3C(=O)[C@@H]3CCCN3C1=O)C(=O)N[C@@H](Cc1ccccc1)C(=O)N1CCC[C@H]1C(=O)N[C@@H](CC(=O)O)C(=O)NCC(=O)N[C@@H](CCCNC(=N)N)C(=O)N2 [Analogue I10H] (cyclo(CFPDGRCTKSIPPH); disulfide 1-7) |  |  | 0.352 ± 0.144 | 0.322
